Here are results for eleven compounds from ChEMBL document CHEMBL1146065, “Structure-based optimization of azole antifungal agents by CoMFA, CoMSIA, and molecular docking” (2006).

≈ marks a conversion by molar mass, not a printed value.

The test system of one assay is Candida parapsilosis. The assay can be described thus: Antifungal activity against Candida parapsilosis. The format is functional. To be noted: Lodderomyces parapsilosis.
The subject of another assay is Trichophyton benhamiae. Nature of the assay: Antifungal activity against Trichophyton mentagrophytes. It is filed as functional, Arthroderma benhamiae.
The next assay concerns Epidermophyton floccosum. The assay can be described thus: Antifungal activity against Epidermophyton floccosum. It is filed as functional.
Another assay has as its system Sporothrix schenckii. Nature of the assay: Antifungal activity against Sporothrix schenckii. The format is functional.
In the next assay the test system is Trichophyton rubrum. The assay can be described thus: Antifungal activity against Trichophyton rubrum. It is filed as functional.
The next assay relates to Aspergillus fumigatus. Nature of the assay: Antifungal activity against Aspergillus fumigatus. It is filed as functional.
The next assay has as its system Nannizzia gypsea. The assay can be described thus: Antifungal activity against Microsporum gypseum. The format is functional.
In the next assay the test system is Trichophyton violaceum. The assay can be described thus: Antifungal activity against Trichophyton violaceum. It is filed as functional.
The subject of a further assay is Microsporum. The assay can be described thus: Antifungal activity against Microsporum lanosum. The format is functional.
In another assay the test system is Candida tropicalis. The assay can be described thus: Antifungal activity against Candida tropicalis. The format is functional.
Another assay concerns Candida albicans. Nature of the assay: Antifungal activity against Candida albicans. The format is functional.
The next assay relates to Cryptococcus neoformans. The assay can be described thus: Antifungal activity against Cryptococcus neoformans. It is filed as functional.
A further assay deals with Fonsecaea pedrosoi. Nature of the assay: Antifungal activity against Fonsecaea pedrosoi. The format is functional.

Take `CN(Cc1cc(F)ccc1Br)CC(O)(Cn1cncn1)c1ccc(F)cc1F` (stereo not drawn): the MIC80 (commonly the lowest concentration that inhibits either 80% of growth or 80% of the strains tested, depending on the study) in the assay on Candida parapsilosis was ≤ 0.125 µg/mL; in the assay on Trichophyton benhamiae, 0.5 µg/mL (≈ 1.1 µM); with Epidermophyton floccosum, < 0.0625 µg/mL; in the assay on Sporothrix schenckii it was 64 µg/mL (≈ 141 µM); with Trichophyton rubrum, 0.5 µg/mL (≈ 1.1 µM); in the assay on Aspergillus fumigatus, 4 µg/mL (≈ 8.79 µM). The MIC80 is 32 µg/mL (≈ 70.3 µM) in the assay on Nannizzia gypsea; 4 µg/mL (≈ 8.79 µM) against Trichophyton violaceum; 8 µg/mL (≈ 17.6 µM) against Microsporum; ≤ 0.125 µg/mL against Candida tropicalis; 0.032 µg/mL (≈ 0.0703 µM) with Candida albicans; ≤ 0.125 µg/mL in the assay with Cryptococcus neoformans. The compound further returned an MIC80 in the assay with Fonsecaea pedrosoi of 2 µg/mL (≈ 4.39 µM).

For the compound `CN(Cc1ccc(NC(=O)c2ccccc2)cc1)CC(O)(Cn1cncn1)c1ccc(F)cc1F` (stereo not drawn), the MIC80 in the assay on Candida parapsilosis came to 0.0625 µg/mL (≈ 0.131 µM); in the assay on Trichophyton rubrum it was 0.5 µg/mL (≈ 1.05 µM); against Aspergillus fumigatus, 32 µg/mL (≈ 67 µM); against Microsporum, 4 µg/mL (≈ 8.38 µM); in the assay on Candida tropicalis, 0.125 µg/mL (≈ 0.262 µM); against Candida albicans, 0.031 µg/mL (≈ 0.0649 µM). Further, the MIC80 in the assay with Cryptococcus neoformans and against Fonsecaea pedrosoi was 1 µg/mL (≈ 2.09 µM) throughout.

`CN(Cc1ccc(-n2cnn(Cc3ccc([N+](=O)[O-])cc3)c2=O)cc1)CC(O)(Cn1cncn1)c1ccc(F)cc1F` (stereo not drawn): the MIC80 came to 0.25 µg/mL (≈ 0.434 µM) with Candida parapsilosis; 64 µg/mL (≈ 111 µM) against Sporothrix schenckii; 16 µg/mL (≈ 27.8 µM) against Trichophyton rubrum; 64 µg/mL (≈ 111 µM) with Aspergillus fumigatus; 0.0625 µg/mL (≈ 0.108 µM) with Candida tropicalis; 0.0625 µg/mL (≈ 0.108 µM) against Candida albicans. The MIC80 worked out at 16 µg/mL (≈ 27.8 µM) against Cryptococcus neoformans and 4 µg/mL (≈ 6.94 µM) against Fonsecaea pedrosoi.

For `CN(Cc1ccc(NC(=O)c2ccc(I)cc2)cc1)CC(O)(Cn1cncn1)c1ccc(F)cc1F` (stereo not drawn), the MIC80 with Candida parapsilosis is 0.5 µg/mL (≈ 0.829 µM); against Trichophyton rubrum it was ≤ 0.125 µg/mL; against Aspergillus fumigatus, > 64 µg/mL; against Microsporum, ≤ 0.125 µg/mL; against Candida tropicalis, 0.25 µg/mL (≈ 0.414 µM); with Candida albicans, 0.0625 µg/mL (≈ 0.104 µM). The MIC80 was ≤ 0.031 µg/mL against Cryptococcus neoformans and ≤ 0.125 µg/mL with Fonsecaea pedrosoi.

In the case of `Cc1cccc(C(=O)Nc2ccc(CN(C)CC(O)(Cn3cncn3)c3ccc(F)cc3F)cc2)c1` (stereo not drawn), the MIC80 against Candida parapsilosis was 0.0625 µg/mL (≈ 0.127 µM); in the assay with Trichophyton rubrum it was ≤ 0.125 µg/mL; with Aspergillus fumigatus, 16 µg/mL (≈ 32.6 µM); against Microsporum, 0.25 µg/mL (≈ 0.509 µM); in the assay on Candida tropicalis, 1 µg/mL (≈ 2.03 µM); with Candida albicans it was 0.031 µg/mL (≈ 0.0631 µM). The values for the MIC80 with Cryptococcus neoformans and in the assay with Fonsecaea pedrosoi were 1 µg/mL (≈ 2.03 µM) and 0.5 µg/mL (≈ 1.02 µM), respectively.

Consider `CN(Cc1ccc(NC(=O)c2ccc(Cl)cc2Cl)cc1)CC(O)(Cn1cncn1)c1ccc(F)cc1F` (stereo not drawn), for which the MIC80 in the assay on Candida parapsilosis came to 0.125 µg/mL (≈ 0.229 µM); against Trichophyton rubrum it was 0.5 µg/mL (≈ 0.915 µM); with Aspergillus fumigatus, 16 µg/mL (≈ 29.3 µM); with Microsporum it was 0.5 µg/mL (≈ 0.915 µM); in the assay on Candida tropicalis, 0.5 µg/mL (≈ 0.915 µM); against Candida albicans, 0.016 µg/mL (≈ 0.0293 µM). The MIC80 with Cryptococcus neoformans is 0.0625 µg/mL (≈ 0.114 µM); against Fonsecaea pedrosoi, ≤ 0.125 µg/mL.

Take `CN(Cc1ccc(I)cc1)CC(O)(Cn1cncn1)c1ccc(F)cc1F` (stereo not drawn): the MIC80 against Candida parapsilosis is 0.25 µg/mL (≈ 0.516 µM); with Trichophyton benhamiae, < 0.0625 µg/mL; against Epidermophyton floccosum it was < 0.0625 µg/mL; with Sporothrix schenckii, 16 µg/mL (≈ 33 µM); in the assay on Trichophyton rubrum, ≤ 0.125 µg/mL; against Aspergillus fumigatus it was ≤ 0.125 µg/mL. Further, the MIC80 against Nannizzia gypsea was < 0.0625 µg/mL; against Trichophyton violaceum it was < 0.0625 µg/mL; with Microsporum, < 0.0625 µg/mL; in the assay on Candida tropicalis it was ≤ 0.125 µg/mL; in the assay with Candida albicans, 0.032 µg/mL (≈ 0.0661 µM); in the assay on Cryptococcus neoformans, ≤ 0.125 µg/mL. Moreover, in the assay with Fonsecaea pedrosoi, the MIC80 is ≤ 0.125 µg/mL.

As for `CN(Cc1ccc(-n2cnn(Cc3ccc(F)cc3)c2=O)cc1)CC(O)(Cn1cncn1)c1ccc(F)cc1F` (stereo not drawn), the MIC80 was determined as 4 µg/mL (≈ 7.28 µM) in the assay on Candida parapsilosis; 32 µg/mL (≈ 58.2 µM) in the assay on Sporothrix schenckii; 8 µg/mL (≈ 14.6 µM) with Trichophyton rubrum; 64 µg/mL (≈ 116 µM) in the assay with Aspergillus fumigatus; 1 µg/mL (≈ 1.82 µM) against Candida tropicalis; 0.004 µg/mL (≈ 0.00728 µM) in the assay with Candida albicans. Also, the MIC80 with Cryptococcus neoformans was 4 µg/mL (≈ 7.28 µM); against Fonsecaea pedrosoi, 1 µg/mL (≈ 1.82 µM).

Consider `CN(Cc1ccc(NC(=O)c2ccc(Br)cc2)cc1)CC(O)(Cn1cncn1)c1ccc(F)cc1F` (stereo not drawn), for which the MIC80 against Candida parapsilosis was 0.016 µg/mL (≈ 0.0288 µM); with Trichophyton rubrum, ≤ 0.125 µg/mL; against Aspergillus fumigatus it was 16 µg/mL (≈ 28.8 µM); in the assay with Microsporum, 0.25 µg/mL (≈ 0.449 µM); with Candida tropicalis, 0.016 µg/mL (≈ 0.0288 µM); against Candida albicans, 0.008 µg/mL (≈ 0.0144 µM). Further, the MIC80 in the assay on Cryptococcus neoformans is 0.125 µg/mL (≈ 0.225 µM); in the assay with Fonsecaea pedrosoi, ≤ 0.125 µg/mL.

As to `CN(Cc1cccc(I)c1)CC(O)(Cn1cncn1)c1ccc(F)cc1F` (stereo not drawn), the MIC80 in the assay with Candida parapsilosis was 1 µg/mL (≈ 2.06 µM); in the assay on Trichophyton benhamiae, < 0.0625 µg/mL; in the assay on Epidermophyton floccosum, < 0.0625 µg/mL; against Sporothrix schenckii it was 64 µg/mL (≈ 132 µM); in the assay with Trichophyton rubrum, ≤ 0.125 µg/mL; against Aspergillus fumigatus, 8 µg/mL (≈ 16.5 µM). For the same compound, the MIC80 against Nannizzia gypsea was 0.125 µg/mL (≈ 0.258 µM); against Trichophyton violaceum it was < 0.0625 µg/mL; in the assay on Microsporum, < 0.0625 µg/mL; against Candida tropicalis, ≤ 0.125 µg/mL; against Candida albicans, 1 µg/mL (≈ 2.06 µM); in the assay on Cryptococcus neoformans it was ≤ 0.125 µg/mL. The MIC80 with Fonsecaea pedrosoi was ≤ 0.125 µg/mL.

On to `OC(Cn1cncn1)(Cn1cncn1)c1ccc(F)cc1F` [FLUCONAZOLE], for which the MIC80 against Candida parapsilosis is 0.5 µg/mL (≈ 1.63 µM); against Trichophyton benhamiae, > 32 µg/mL; against Epidermophyton floccosum, > 32 µg/mL; with Sporothrix schenckii, > 64 µg/mL; against Trichophyton rubrum, 8 µg/mL (≈ 26.1 µM); in the assay with Aspergillus fumigatus, 32 µg/mL (≈ 104 µM). In addition, the MIC80 against Nannizzia gypsea was 8 µg/mL (≈ 26.1 µM); against Trichophyton violaceum, 32 µg/mL (≈ 104 µM); in the assay on Microsporum it was > 32 µg/mL; in the assay on Candida tropicalis, 0.5 µg/mL (≈ 1.63 µM); against Candida albicans, 0.25 µg/mL (≈ 0.816 µM); against Cryptococcus neoformans, 16 µg/mL (≈ 52.2 µM). In the assay on Fonsecaea pedrosoi, the MIC80 was 64 µg/mL (≈ 209 µM).
